The values below are quoted from earlier work in US5866682A (priority 1997, dated 1999).

For the data set, the system named is α3β2 and α3β4 receptors.

For the substance α-conotoxin MII, the “binding sites and toxin molecules required to block function” value was “has two binding sites on α3β2 and α3β4 receptors expressed in Xenopus oocytes and only one toxin molecule is required to block function”; the “block of native nAChRs” value was “blocks native α3β2-containing nAChRs and α3β4 conataining nAChRs”; the “discrimination between the α3β2 and α3β4 interface” value was “four orders-of-magnitude”.
